The values that follow come from patent US12702715B2, “Targeted RNA degradation allows precision repurposing of protein-targeted small molecule medicines to RNA” (University of Florida Research Foundation, Incorporated, priority 2020, dated 2026).

Entries after “also recorded” stand apart in the source; their conditions may differ.

Common to all, as to format: cell-based, human
Assay [1] deals with PDCD4. Description: PDCD4 Western blot in MDA-MB-231 cells. The method, then: Western Blotting. MDA-MB-231 cells were plated in 6-well plates. When they reached ~50% confluency, they were treated with vehicle (DMSO) or 4. After 48 h, the medium was removed, and the cells were washed with 1×DPBS. The cells were harvested by trypsinization, and total protein was extracted with MPER (Mammalian Protein Extraction Reagent, Thermo Scientific) as previously described^6. Protein concentrations were determined by using a Pierce Micro BCA Protein Assay kit (Fisher Scientific). Approximately 10 μg of total protein from each sample obtained above was resolved on a SDS-polyacrylamide gel (10%), and the protein were transferred to a PVDF ([…]) membrane. After blocking the membrane in 1×TBST with 5% (w/v) nonfat milk for 60 min, the membrane was incubated with 1×TBST containing 5% milk and PDCD4 (Cell Signaling Technology, 9535S) primary antibody (1:1000 dilution) at 4° C. overnight. The membrane was washed with 1×TBST for 10 min three times and then incubated with 1:2000 anti-rabbit IgG horseradish-peroxidase secondary antibody conjugate (Cell Signaling Technology, 7074S) in 1× TBST containing 5% (w/v) milk for about 2 h. After washing with 1×TBST for 10 min three times, PDCD4 protein was detected by using SuperSignal West Pico Chemiluminescent Substrate (Pierce Biotechnology). After imaging, the membrane was stripped with 1× Stripping Buffer (200 mM glycine with 0.1% SDS, pH 2.2) for 120 min at RT, and β-actin level was detected as described for PDCD4 except using β-actin (Cell Signaling Technology, 3700S) primary antibody (1:5000 dilution). ImageJ software was used for quantification of the protein bands.

The test system of assay [2] is proteome of MDA-MB-231 cells. Briefly: Global proteomics profiling by LC-MS/MS. As to conditions: for number of proteins significantly affected / abundance of miR-21 regulated proteins: 1 and 2 at 1 μM; for number of proteins significantly affected: LNA-21 0.1 μM, 48 h, 3000 proteins detected; for abundance of miR-21 regulated proteins: LNA-21 100 nM; for proteins associated with miR-let-7: control. The protocol: Global Proteomics Profiling by Using LC-MS/MS. MDA-MB-231 cells (~60% confluency) were treated with 1 (1 μM), 2 (1 μM), LNA-21 (0.1 μM), or vehicle for 48 h. After washing with 1×DPBS, the cells were harvested by scraping and resuspended in 1×DPBS. They were lysed by sonication and centrifuged at 14,000×g for 15 min. Protein concentrations were determined by a Bradford assay (Bio-Rad). Protein samples (340 μg) were denatured with 6 M urea in 50 mM NH4HCO3, pH 8, reduced with 10 mM TCEP (tris(2-carboxyethyl)phosphine hydrochloride) for 30 min, and alkylated with 25 mM iodoacetamide for 30 min in the dark. The samples were diluted to a final concentration of 2 M urea with 50 mM NH4HCO3, pH 8, and CaCl2) was added to a final concentration of 1 mM. The protein mixture was digested with tiypsin (1.5 μL of 0.5 μg/μL) overnight at 37° C. The digested protein samples were acidified with acetic acid and desalted over a self-packed C18 spin column. After lyophilization, the samples were analyzed by LC-MS/MS as described below.
LC-MS/MS Analysis and MaxQuant Analysis. The lyophilized protein obtained above was resuspended in 0.1% formic acid in water and analyzed by using an EASY-nLC 1200 nano-UHPLC coupled to Q Exactive HF-X Quadrupole-Orbitrap mass spectrometer (Thermo Scientific) as previously reported^6. Obtained spectra were then analyzed with MaxQuant (V1.6.1.0). Spectra were searched against the human proteome (Uniprot) and common contaminants. The search tolerance was set to 20 ppm for the first peptide search and 10 ppm for the main peptide search. The false discovery rate (FDR) for proteins, peptides and sites identification was set at 5%. All the parameters were set as previously reported^6.
Principal Component Analysis. Principal component analysis (PCA) was completed on the proteomics data that included 2,315 proteins that were detected in all samples after the technical replications were averaged, to visualize overall differences across the samples. R build in package prcomp^10 was used to perform the analysis, where scale was set to TRUE.

For assay [3], the system named is RTK / phosphorylation of ERK (pERK). Briefly: Western blot of ERK phosphorylation (functional RTK inhibition) in MDA-MB-231 cells. The note with it: for IC50: Homo sapiens, MDA-MB-231; for dose inhibiting ERK phosphorylation to the similar extent: Western blot quantification. The method, then: Western Blotting. MDA-MB-231 cells were plated in 6-well plates. […] The cells were harvested by trypsinization, and total protein was extracted with MPER (Mammalian Protein Extraction Reagent, Thermo Scientific) as previously described^6. Protein concentrations were determined by using a Pierce Micro BCA Protein Assay kit (Fisher Scientific). […] ImageJ software was used for quantification of the protein bands. […] In each case, the secondary antibody was diluted two times more than the primary antibody.

Assay [4] concerns pre-miR-21. Description: Cellular Chem-CLIP and C-Chem-CLIP to study occupancy of pre-miR-21. The method, then:
Cellular Chem-CLIP and C-Chem-CLIP to Study Occupancy of pre-miR-2L MDA-MB-231 cells in 100 mm dishes (~90% confluency) were treated with 4 or 5 for 6 h at 37° C. Then the cells were washed with 1×DPBS and cross-linked under 365 nm light for 10 min in ice cold 1×DPBS. The cells were harvested by scraping and pelleted by centrifugation. Total RNA was extracted by using the miRNeasy mini kit (Qiagen) per the manufacturer's protocol. Approximately 50 μg of total RNA was clicked to disulfide biotin azide as described in the “In Vitro Chem-CLIP and Competitive Chem-CLIP (C-Chem-CLIP)” section. Streptavidin beads (10 μL) were added, and the samples were incubated, with shaking, for 2 h at 37° C. The beads were then washed with 1× Wash Buffer (10 mM Tris-HCl, pH 7.0, 4 M NaCl, 1 mM EDTA) three times and then once with nanopure water. Bound RNAs were eluted from the beads by incubating with 200 μL of 1:1 TCEP (200 mM) pre-reduced with 600 mM of K2CO3 for 30 min at 37° C. The reaction was quenched by treatment with an equal volume of 400 mM of iodoacetamide for 30 min at room temperature. The supernatant was collected, and the beads were washed once with nanopure water: the water was added to the eluant. The combined eluant was cleaned up using RNAClean XP beads according to the manufacturer's protocol. The obtained RNA was then subjected to RT-qPCR. Enrichment of pre-miR-21 was calculated as previously described^6. Cellular C-Chem-CLIP was completed by pre-treating with 1 (1 or 5 μM) or 3 (1 or 5 μM) for 6 h, followed by dosing with 4 (5 μM) for 6 h. Sample preparation and data analysis were completed as described above for cellular Chem-CLIP studies.

For `CN1CCN(c2ccc3nc(-c4c(N)c5c(F)cccc5[nH]c4=O)[nH]c3c2)CC1` [Compound 1, Dovitinib, reference compound], the “derepression of PDCD4 expression” value in assay [1] (5 μM) was ~ 60%. For the same compound, the “number of affected proteins associated with ERK pathways” value in assay [2] (1 μM) worked out at 14. Also, in assay [2], the “number of proteins significantly affected” value is 46, the “abundance of miR-21 regulated proteins” value is “had no effect; also recorded: no significant changes” and the “proteins associated with miR-let-7” value was “Neither treatment with 1 nor 2 affected”. In assay [3], the midpoint of inhibition, the IC50, lay at 0.1 µM and the “dose inhibiting ERK phosphorylation to the similar extent” value stood at 0.05 µM. The “competition of pull-down of pre-miR-21 with 4” value in assay [4] (increasing concentrations, 4 constant) is reported as “similarly diminished”.

Consider `CCOC(=O)C1=C(Nc2ccccc2)S/C(=C\c2ccc(OCCOCCOCCOCCNC(=O)NCCN3CCN(c4ccc5[nH]c(-c6c(N)c7c(F)cccc7[nH]c6=O)nc5c4)CC3)c(O)c2)C1=O` [Compound 2, Ribotac-Dovitinib], for which, in assay [1] (MDA-MB-231, 1 and 2 at 1 μM, LNA-21 at 100 nM), the PDCD4 expression result is “derepressed”. Also, the “fold more potent downstream effects than 1” value in assay [1] (PTEN, PDCD4, invasion) is 10 fold. Also, in assay [2], the “PCA similarity of proteome” value was “more similar to treatment with LNA-21 than 1”, the “number of proteins significantly affected” value is 28, the “abundance of miR-21 regulated proteins” value is listed as “globally upregulated; also recorded: significant increase in abundance” and the “proteins associated with miR-let-7” value is “Neither treatment with 1 nor 2 affected”. Besides, in assay [3], the “fold decrease of RTK inhibition relative to 1” value turned out to be 100 fold, the IC50 worked out at 10 µM and the “dose inhibiting ERK phosphorylation to the similar extent” value was 5 µM. Also, in assay [3] (25-fold (miR-21) × 100-fold (RTK), relative to 1), the “shift of selectivity toward miR-21 over RTK” value was 2,500 fold. Also, the “inhibition of ERK phosphorylation compared to 1” value in assay [3] (Western blot) is “reduced ability to inhibit ERK phosphorylation compared to 1”.

Regarding `C#CCCC1(CCC(=O)NCCN2CCN(c3ccc4[nH]c(-c5c(N)c6c(F)cccc6[nH]c5=O)nc4c3)CC2)N=N1` [Compound 4], in assay [4] (MDA-MB-231), the “reaction with / pull-down of pre-miR-21 in cells” value is reported as “reacted with pre-miR-21”.

One may read the IC50 as the concentration needed to halve the response being measured.
